Reference: publication PMC10872856 (The Prostate, 2023)

Molecular target: T1, N-myristoyltransferase 1 (NMT1) (Homo sapiens, UniProt P30419)
T1 sequence (P30419 1-496): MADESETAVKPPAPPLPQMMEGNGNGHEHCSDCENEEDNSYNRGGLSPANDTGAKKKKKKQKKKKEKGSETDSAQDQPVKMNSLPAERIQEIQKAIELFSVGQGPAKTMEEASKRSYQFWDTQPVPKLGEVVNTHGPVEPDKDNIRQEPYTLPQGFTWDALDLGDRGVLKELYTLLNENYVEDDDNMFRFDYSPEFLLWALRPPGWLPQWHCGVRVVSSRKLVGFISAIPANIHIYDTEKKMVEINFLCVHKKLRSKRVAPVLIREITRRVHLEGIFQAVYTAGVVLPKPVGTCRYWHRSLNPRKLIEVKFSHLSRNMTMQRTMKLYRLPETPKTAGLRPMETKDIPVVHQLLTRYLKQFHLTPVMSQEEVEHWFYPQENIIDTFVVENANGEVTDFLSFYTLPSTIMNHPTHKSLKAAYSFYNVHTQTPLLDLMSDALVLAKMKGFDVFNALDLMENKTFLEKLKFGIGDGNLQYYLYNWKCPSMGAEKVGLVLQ
Assay: fluorogenic CoA-release enzyme assay
Assay type: biochemical

IC50: 2.3 µM
Structure (SMILES): CCCCCCCCCCCCCCN[C@H](CO)[C@H](O)c1ccc([N+](=O)[O-])cc1 [LCL204, (1R,2R)-LCL204]
